According to the supplement of paper PMC10307832:

Columns and labels:
Experiment in all cases: relative viability (nuclei count vs DMSO), 5 days (fraction); higher = more cells survive
Alisertib + Navitoclax = compound: COc1cc(Nc2ncc3c(n2)-c2ccc(Cl)cc2C(c2c(F)cccc2OC)=NC3)ccc1C(=O)O [Alisertib] + CC1(C)CCC(c2ccc(Cl)cc2)=C(CN2CCN(c3ccc(C(=O)NS(=O)(=O)c4ccc(N[C@H](CCN5CCOCC5)CSc5ccccc5)c(S(=O)(=O)C(F)(F)F)c4)cc3)CC2)C1 [Navitoclax] (partner 0.5 µM)
In short: (§1)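 After 5 days of treatment, lung cancer cells in 1536-well plates were fixed and stained in a single step (final 0.05% Triton X-100, 1% formaldehyde, 1 ug/ml Hoechst) and their nuclei counted on 4× images. Treatment had been applied by pin tool the day after seeding as one drug alone or as a fixed anchor-drug dose with five library-drug doses (not always all listed) in √10 steps. Relative viability is the nuclei count of treated wells divided by that of vehicle wells, and values are medians of duplicate plates.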

Alisertib + Vorinostat = compound: COc1cc(Nc2ncc3c(n2)-c2ccc(Cl)cc2C(c2c(F)cccc2OC)=NC3)ccc1C(=O)O [Alisertib] + O=C(CCCCCCC(=O)Nc1ccccc1)NO [Vorinostat] (partner 1 µM)
In short: as §1

Alisertib + Crizotinib = compound: COc1cc(Nc2ncc3c(n2)-c2ccc(Cl)cc2C(c2c(F)cccc2OC)=NC3)ccc1C(=O)O [Alisertib] + C[C@@H](Oc1cc(-c2cnn(C3CCNCC3)c2)cnc1N)c1c(Cl)ccc(F)c1Cl [Crizotinib] (partner 1 µM)
In short: as §1

Alisertib + Tozasertib = compound: COc1cc(Nc2ncc3c(n2)-c2ccc(Cl)cc2C(c2c(F)cccc2OC)=NC3)ccc1C(=O)O [Alisertib] + Cc1cc(Nc2cc(N3CCN(C)CC3)nc(Sc3ccc(NC(=O)C4CC4)cc3)n2)n[nH]1 [Tozasertib] (partner 0.1 µM)
In short: as §1

Row | Cell Line | relative viability (Alisertib + Navitoclax; first compound 0.005 µM) | relative viability (Alisertib + Navitoclax; first compound 0.01581 µM) | relative viability (Alisertib + Navitoclax; first compound 0.05 µM) | relative viability (Alisertib + Navitoclax; first compound 0.1581 µM) | relative viability (Alisertib + Navitoclax; first compound 0.5 µM) | relative viability (Alisertib + Vorinostat; first compound 0.005 µM) | relative viability (Alisertib + Vorinostat; first compound 0.01581 µM) | relative viability (Alisertib + Vorinostat; first compound 0.05 µM) | relative viability (Alisertib + Vorinostat; first compound 0.1581 µM) | relative viability (Alisertib + Vorinostat; first compound 0.5 µM) | relative viability (Alisertib + Crizotinib; first compound 0.005 µM) | relative viability (Alisertib + Crizotinib; first compound 0.01581 µM) | relative viability (Alisertib + Crizotinib; first compound 0.05 µM) | relative viability (Alisertib + Crizotinib; first compound 0.1581 µM) | relative viability (Alisertib + Crizotinib; first compound 0.5 µM) | relative viability (Alisertib + Tozasertib; first compound 0.005 µM) | relative viability (Alisertib + Tozasertib; first compound 0.01581 µM) | relative viability (Alisertib + Tozasertib; first compound 0.05 µM) | relative viability (Alisertib + Tozasertib; first compound 0.1581 µM) | relative viability (Alisertib + Tozasertib; first compound 0.5 µM)
1 | COR-L 105 | 0.909 | 0.686 | 0.532 | 0.273 | 0.287 | 0.687 | 0.701 | 0.496 | 0.302 | 0.321 | 0.857 | 0.587 | 0.621 | 0.523 | 0.251 | 0.31 | 0.346 | 0.299 | 0.352 | 0.276
2 | LK-2 | 0.859 | 0.722 | 0.356 | 0.181 | 0.225 | 0.229 | 0.326 | 0.167 | 0.176 | 0.186 | 0.226 | 0.232 | 0.224 | 0.233 | 0.288 | 0.167 | 0.184 | 0.164 | 0.197 | 0.185
3 | NCI-H838 | 1.12 | 1.1 | 0.667 | 0.306 | 0.169 | 0.597 | 0.461 | 0.294 | 0.185 | 0.197 | 0.821 | 0.727 | 0.281 | 0.218 | 0.186 | 0.272 | 0.262 | 0.231 | 0.195 | 0.201
4 | SK-LU-1 | 0.841 | 0.736 | 0.101 | 0.139 | 0.112 | 0.749 | 0.427 | 0.287 | 0.251 | 0.246 | 0.775 | 0.628 | 0.389 | 0.362 | 0.239 | 0.303 | 0.286 | 0.219 | 0.224 | 0.205
5 | NCI-H2023 | 0.955 | 0.885 | 0.656 | 0.282 | 0.132 | 0.565 | 0.31 | 0.215 | 0.12 | 0.0981 | 0.721 | 0.64 | 0.345 | 0.142 | 0.112 | 0.419 | 0.368 | 0.263 | 0.215 | 0.0951
6 | NCI-H1648 |  |  |  |  |  |  | 0.22 | 0.315 | 0.235 | 0.236 |  |  |  |  |  | 0.637 | 0.272 | 0.218 | 0.303 | 0.205
7 | NCI-H522 |  |  |  |  |  | 0.823 | 0.897 | 0.822 | 0.521 | 0.549 |  |  |  |  |  | 0.543 | 0.565 | 0.489 | 0.517 | 0.439
8 | NCI-H650 |  |  |  |  |  | 0.263 | 0.414 | 0.144 | 0.17 | 0.131 | 0.773 | 0.55 | 0.28 | 0.239 | 0.23 | 0.653 | 0.481 | 0.253 | 0.185 | 0.165
9 | NCI-H1793 | 0.428 | 0.339 | 0.247 | 0.17 | 0.148 | 0.465 | 0.41 | 0.267 | 0.191 | 0.221 |  |  |  |  |  | 0.45 | 0.231 | 0.269 | 0.176 | 0.185
10 | NCI-H2342 |  |  |  |  |  | 0.65 | 0.662 | 0.61 | 0.464 | 0.397 |  |  |  |  |  | 0.623 | 0.424 | 0.335 | 0.377 | 0.351
11 | ABC-1 |  |  |  |  |  | 0.993 | 0.753 | 0.46 | 0.249 | 0.332 | 1.1 | 0.551 | 0.363 | 0.318 | 0.23 | 0.178 | 0.233 | 0.256 | 0.203 | 0.196
12 | NCI-H358 |  |  |  |  |  | 0.551 | 0.449 | 0.105 | 0.1 | 0.0875 | 0.632 | 0.358 | 0.193 | 0.188 | 0.186 | 0.093 | 0.121 | 0.0917 | 0.0959 | 0.079
13 | EBC-1 | 0.298 | 0.278 | 0.131 | 0.17 | 0.167 |  |  |  |  |  | 0.177 | 0.189 | 0.174 | 0.139 | 0.155 |  |  |  |  | 
14 | NCI-H661 |  |  |  |  |  | 0.771 | 0.729 | 0.435 | 0.355 | 0.276 | 1.05 | 1.02 | 0.48 | 0.392 | 0.504 | 0.342 | 0.377 | 0.386 | 0.406 | 0.39
15 | NCI-H1792 | 0.608 | 0.6 | 0.494 | 0.096 | 0.0626 |  |  |  |  |  | 0.939 | 0.91 | 0.543 | 0.201 | 0.0858 |  |  |  |  | 
16 | A549 | 1.1 | 0.642 | 0.215 | 0.0692 | 0.0461 |  |  |  |  |  | 0.611 | 0.197 | 0.0682 | 0.0571 | 0.0624 |  |  |  |  | 
17 | NCI-H1703 | 1.2 | 0.837 | 0.317 | 0.156 | 0.126 |  |  |  |  |  | 0.711 | 0.501 | 0.294 | 0.37 | 0.113 |  |  |  |  | 
18 | LCLC-103H |  |  |  |  |  | 0.67 | 0.561 | 0.352 | 0.323 | 0.396 | 1.04 | 1.04 | 0.719 | 0.374 | 0.412 | 0.432 | 0.42 | 0.223 | 0.247 | 0.26
19 | NCI-H1563 |  |  |  |  |  |  |  |  |  |  | 0.741 | 0.911 | 0.788 | 0.809 | 0.601 |  |  |  |  | 
20 | NCI-H1395 | 1.12 | 1.12 | 0.935 | 0.459 | 0.471 | 0.667 | 0.588 | 0.442 | 0.385 | 0.321 |  |  |  |  |  | 0.725 | 0.708 | 0.488 | 0.478 | 0.391
